In brackets after ≈: the same amount, converted by molar mass.
Assays:
pig skin = tested on: pig skin
Description: Various gallate-containing drug formulations were prepared and applied to ex vivo pig skin samples. Fresh pig skin was obtained from a local butcher, processed within three hours and then frozen. For experiments, the skin was slowly thawed, excess fat removed from the base, and cut into 1×2 cm squares. These squares were mounted and clamped on Franz diffusion cells, which kept the tissue moist and isolated and exposed a 6 mm diameter of the upper skin surface for the application of a drug loaded formulation. Skin samples were then frozen and later cryosectioned in 50 μm slices. The drug in the slices was extracted and measured by HPLC or radioactive doping methods. A drug depth profile was then established for each drug.
1. Formulations containing a drug and a gallate. The drugs were dissolved in ethanol at various concentrations along with either EGCG or TA (500 mg/mL). Each solution was pipetted into 6×5 mm diameter aluminum cups (approximately 3 mm in height) by filling and allowing the ethanol to evaporate at 50° C. until all the solution was used up (80 mg per cup).
2. Formulations containing a drug, propylene glycol (“PG”) and a gallate. 300 mg of propylene glycol was mixed with 200 mg of EGCG or TA until dissolved. Various amounts of drug were added to this mixture and dissolved. 80 mg of the resulting viscous solution was weighed into 6×5 mm aluminum cups.
3. Control Formulations. Control formulations were prepared using Glaxal base and Plogel. Glaxal base is a cream used by compounding pharmacists to manufacture topical formulations of drugs. Plogel is an alternative used for dermal formulations. […] Drug was added to a known weight of Glaxal or Plogel and levigated to produce a standard drug dispersion. These formulations were prepared the evening before the experiment. For some drugs, radioactive drug (where available) was also added as a doping additive to facilitate quantitation in tissues.
Eutectics: In some cases, gallate containing compounds and drugs were formulated in eutectic mixtures. These included a 60:40 (% w/w) mixture of menthol with ibuprofen. These agents acted as a carrier for retinoic acid, which was then dissolved in this liquid. The 3-drug eutectic/solution was then blended into the CMC/poloxamer emulsion containing EGCG (2.5%). […] The emulsion was stabilized with poloxamer.
Example 29. Pig skin studies. Aluminum cups containing drug formulations were inverted on top of the pig skin in the Franz diffusion cell so that the formulation contents were in contact with the skin. […]
Analysis. […] The amount of drug in each group of skin sections was then determined using HPLC methods, or by radioactivity counting on a liquid scintillation counter. The amount of drug in each group of skin sections was expressed as μg/g or mg/g of tissue.

[1] = Drug release from injectable PG:gallate pastes (60:40) into PBS; assay type: physicochemical; conditions: 60:40 PG:EGCG or PG:tannic acid, 2% w/w drug, PBS pH 7.4, 37° C.
Description: Methods: 60:40% w/w PG:EGCG or PG:tannic acid was used in these studies. 588 mg of propylene glycol was weighed into a 20 mL glass vials and 392 of EGCG or tannic acid was added followed by vortexing to distribute and dissolve the gallates. The vials were warmed to 60° C. and vortexed until all the contents were in solution. At this time 20 mg of drug was added (2% w/w) and vortexed until in solution. The following drugs were used: paclitaxel, docetaxel, retinoic acid, amphotericin B, and curcumin. 100 mg of each paste was weighed into the base of a 15 mL glass test tube and 10 mL of phosphate buffered saline was added at pH 7.4 and the tubes were incubated at 37° C. for certain times. All 10 mL of the PBS release media was removed and 1 mL analyzed by HPLC for drug content. 10 mL of fresh PBS was then added to all tubes

[2] = Drug concentrations obtained using EGCG at 50 mg per ml (microscopic check for particulates); assay type: physicochemical
Description: EGCG at 50 mg/ml and drug at approximately 250 micrograms per ml were dissolved in the listed solvent and dried down in a test tube under nitrogen. 1 ml of water was added, followed by vortexing. The solutions were examined for particulate matter under a microscope. If no particulates were present, the process was repeated with a higher drug amount. All the tested drugs remained in solution at the listed concentrations except for nystatin and hesperidin.

Caco2 cells = test: Transport of curcumin through Caco2 cells (transwell); assay type: in vitro ADME, human; conditions: 3 hours
Source text: Caco2 cells are continuous cells of human epithelial colorectal adenocarcinoma cells. They contain drug efflux proteins and may be used in the same way that MDCK-MDR cells are, i.e. to measure drug accumulation in cells that have the ability to efflux drugs.
Caco2 cells (ATCC, VA, USA) are proliferating gut epithelial cells used throughout the pharmaceutical sciences as a model of oral drug availability. These cells may be grown in cell culture on membranes where they align with an apical external surface (equivalent to the gut lumen) and a basolateral lower surface that is equivalent to the cell side adjacent to the blood capillaries. When an EGCG curcumin solution was placed in the upper portion of a transwell containing these cells on a membrane for three hours, large amounts of curcumin either passed through or accumulated within the caco2 cells.
Caco2 cells were seeded onto 0.3 um transwell membranes and left to grow to confluence for 3 days. A conductivity electrode measured the Transcellular electrical resistance value over the next few days and when it had reached […] (tight junctions established) the experiment began. A solution of curcumin (250 microgram per ml) in EGCG (25 mg per ml) in Hanks buffer pH 7.4. was added to the top well for 3 hours. […] All solutions were then analyzed for curcumin content using uv-vis absorbance spectroscopy at 430 nm.

[3] = 24 h
Description: (§1) PBS (EGCG) or water (tannic acid) was added and the final solution filtered through a 0.22 micron filter to remove any particulates. The solutions were analyzed for drug concentration using HPLC.
(§2) PBS (EGCG) or water (tannic acid) was added and the final solution filtered through a 0.22 micron filter to remove particulates. The solution was then analyzed for drug concentration using absorbance spectroscopy at 450 nm.
(§3) PBS (EGCG) or water (tannic acid) was added and the final solution was filtered through a 0.22 micron filter to remove any particulates and the solution was analyzed for drug concentration using HPLC.
(§4) PBS (EGCG) or water (tannic acid) was added and the final solution filtered through a 0.22 micron filter to remove any particulates and the solution was analyzed for drug concentration using HPLC.
(§5) PBS (EGCG) or water (Tannic acid) was added and the final solution was filtered through a 0.22 um filter to remove any particulates and the solution was analyzed for drug concentration using HPLC.
(§6) Method: drug and EGCG or tannic acid were dried down from acetonitrile (or methanol for tannic acid) solutions at various drug to EGCG or tannic acid ratios. PBS (EGCG) or water (Tannic acid pH adjusted to 7) was added and the final solution was filtered through a 0.22 um filter to remove any particulates and the solution was analyzed for drug concentration using HPLC methods.

[4] = Drug in EGCG or tannic acid films (optical microscopy, DSC); assay type: physicochemical
Description: Thin films of drugs were cast in either EGCG or tannic acid from ethanol solutions. Drugs in either EGCG or tannic acid were dissolved in ethanol at a final total concentration of 20% w/v and spot pipetted in repeated 10 microliter volumes and allowed to dry between spotting. This allowed a thin film to accumulate and dry. Some solutions contained either glycerol or polyethylene glycol 300 at 10% or 20% w/w to EGCG or tannic acid. The films were allowed to dry and examined by optical microscopy for drug precipitation. Films were allow analyzed by differential scanning calorimetry (DSC) for identify drug crystals.

Description for physchem: as §1, §2, §3, §4, §5, §6

Structure (SMILES): COc1cc(/C=C/C(=O)CC(=O)/C=C/c2ccc(O)c(OC)c2)ccc1O [curcumin]
- drug uptake by pig skin (pig skin): essentially no drug uptake
- solubility (physchem; aqueous with cosolvent or surfactant or cyclodextrin, thermodynamic from solid, drug concentration solubilised at maximum EGCG concentration): ~4700 µg/mL (≈ 12.8 mM)
- solubility (physchem; aqueous with cosolvent or surfactant or cyclodextrin, thermodynamic from solid, drug concentration solubilised at maximum tannic acid concentration): ~12000 µg/mL (≈ 32.6 mM)
- solubility (physchem; water, free solubility in water): < 1 µg/mL
- drug release from PG:gallate paste [1]: relatively controlled release of the drug over 24 hours
- Visual appearance [2]: clear
- Drug Concentration ([2]; 1 ml of water): 250 microgram/ml
- Particulates present ([2]; under a microscope): no
- curcumin uptake and transport through the cells (Caco2 cells; curcumin 250 microgram per ml in EGCG 25 mg per ml, versus diblock copolymer): much higher levels
- curcumin passing through and entering the cells (Caco2 cells; diblock copolymer micellar solution, 250 micrograms/ml): small amount
- stability of EGCG solutions of the drug [3]: stable for 24 hours
- stability of tannic acid solutions of the drug [3]: stable for 24 hours
- drug loading at which drug precipitated out of film [4]: approximately 5 % w/w

— US11707557B2, “Compositions and devices incorporating water-insoluble therapeutic agents and methods of the use thereof” (COOK MEDICAL TECHNOLOGIES LLC, priority 2014, dated 2023)
